According to patent US20220235073A1, “ARTEMISININ-DERIVATIVE N-HETEROCYCLIC CARBENE GOLD(I) HYBRID COMPLEXES” (CENTRE NATIONAL DE LA RECHERCHE SCIENTIFIQUE, priority 2019, published 2022):
Read-outs that look alike come from different tables or passages of the source.

What was measured:
[1] = tested on: T24 human bladder carcinoma cells; assay: Cell viability MTT assay, T24; type: cell-based; conditions: for GI50: 72 h, MTT assay; for IC50: Table 3, tumor cell model
Method: (§1) PC-3 human prostate cancer cells, and LAMA chronic myeloid leukemia were cultured in RPMI 1640 containing 10% fetal bovine serum and 1% antibiotics (100 U/mL penicillin and 100 μg/mL streotimycin) at 37° C. in 5% CO2 humidified incubators. HL60 chronic myeloid leukemia were cultured in RPMI 1640 containing 15% fetal bovine serum and 1% antibiotics (100 U/mL penicillin and 100 μg/mL streotimycin) at 37° C. in 5% CO2 humidified incubators. HepG-2 human liver cancer cells were cultured in EMEM containing 10% of FBS, 1% of nonessential amino acids, 1 mM of Na-pyruvate, 1% of PenStrep antibiotics and 600 μg/mL of Geneticin. A549 human lung carcinoma cells, T24 human bladder carcinoma cells, MCF-7 human breast adenocarcinoma cells, U-2OS human osteosarcoma and NIH3T3 murine fibroblast cells were cultured in DMEM medium containing 10% fetal bovine serum and 1% antibiotics at 37° C. in 5% CO2 humidified incubators. MC3T3 mouse osteoblast cells were cultured in MEM medium containing 10% fetal bovine serum and 1% antibiotics at 37° C. in 5% CO2 humidified incubators. RWPE-1 human prostate normal cells were cultured in K-SFM medium containing 0.05 mg/ml bovine pituitary extract (BPE) and 5 ng/ml epidermal growth factor (EGF) at 37° C. in 5% CO2 humidified incubators. The MTT reagent (3-(4,5-dimethylthiazol-2-yl)-2,5-diphenyltetrazolium bromide) was used to determine cell death as originally described by Mosmaneland modified by Cuvillier et al.^[6] Briefly, cells were seeded 5,000 to 10,000 cells/well in 24-well plates depending on the cell type and allowed to attach overnight. All of the complexes were dissolved in DMSO. The concentration of the complexes was calculated according to the elemental composition of the complexes determined by the elemental analyses. Media in the presence of the tested complexes were added and serially diluted to various concentrations (from 5 μM to 0.01 μM). Next to these concentrations, for DHA 50, 20 and 10 μM and for the cationic bisNHC gold(I) complex 3 0.001 μM have been used. […] After 72 h of treatment, cells were incubated at 37° C. and 5% CO2 with 25 μL MTT solution (5 mg/mL; Sigma-Aldrich) in 24-well plates for approximately 3 to 4 h. After solubilization with 500 μL of lysis buffer (DMSO), formazan was quantified by spectrophotometry with a microplate reader at 570 nm absorbance. The GI50 values corresponding to the concentration that caused 50% inhibition of cell proliferation were calculated from dose-response curves obtained by nonlinear regression analysis (Prism 8, Graphpad Software). All the results were calculated from data obtained in three independent experiments.

[2] = tested on: NIH3T3 murine fibroblast cells; assay: Cell viability MTT assay, NIH3T3; type: cell-based; conditions: for GI50: 72 h, MTT assay; for IC50: Table 3, non tumoral cell model, read-out: IC50 NIH3T3 (fibroblasts); for Selectivity index NIH3T3: SI = GI50 (non-cancer cell line NIH3T3)/GI50 (cancer cell line PC-3)
Method: as §1, with “HepG-2” for “PC-3 human prostate cancer cells, and LAMA chronic myeloid leukemia were cultured in RPMI 1640 containing 10% fetal bovine serum and 1% antibiotics (100 U/mL penicillin and 100 μg/mL streotimycin) at 37° C. in 5% CO2 humidified incubators. HL60 chronic myeloid leukemia were cultured in RPMI 1640 containing 15% fetal bovine serum and 1% antibiotics (100 U/mL penicillin and 100 μg/mL streotimycin) at 37° C. in 5% CO2 humidified incubators. HepG-2”, “The GI50 values corresponding to the concentration that caused 50% inhibition of cell proliferation were calculated from dose-response curves obtained by nonlinear regression analysis (Prism 8, Graphpad Software).” left out

[3] = tested on: LAMA chronic myeloid leukemia; assay: Cell viability MTT assay, LAMA; type: cell-based, human; conditions: for GI50: 72 h, MTT assay; for IC50: Table 3, tumor cell model
Method: as §1

[4] = tested on: A549 human lung carcinoma cells; assay: Cell viability MTT assay, A549; type: cell-based; conditions: for GI50: 72 h, MTT assay; for IC50: Table 3, tumor cell model
Method: as §1

Nrf2 = assay: NRF2 transcriptional activity, ARE Reporter Hep G2 cell line; type: cell-based, human; conditions: ARE Reporter Hep G2 cells, 16 hours, any dose
Method: The ARE Reporter Hep G2 cell line containing a firefly luciferase gene under the control of ARE stably integrated into Hep G2 cells was used to quantify NRF2 transcriptional activity after 16 hours of treatment with the indicated doses of the different complexes. The results are shown as fold induction of ARE luciferase reporter expression. Dashed line indicates a fold induction of 1 (values >1 mean activation and values <1 mean inhibition).
ARE-reporter-HepG-2 cells were harvested from culture in Growth Medium 1K and they were seeded at a concentration of 40,000 cells/well into white clear-bottom 96-well microplate in 45 μL of Growth Medium 1K without Geneticin. Cells were allowed to attach overnight and then treated with different concentrations of complex 2a (from 0.01 μM to 20 μM), auranofin (from 0.01 μM to 20 μM) or DHA (from 0.01 μM to 3, 5, 10, 20 and 50 μM), and complex (from 0.01 μM to 20 μM). After incubation at 37° C. and 5% CO2 for 16 hours, ONE-Step luciferase assay reagent (100 μL) was added and rock at room temperature for over 15 minutes. Then the luminescence of each well was determined by CLARIOstar microplate reader to quantify induction of ARE. Three independent experiments were performed as biological triplicates. The results are in FIG. 4.

| GI50 ([1]; Homo sapiens) [µM] | IC50 ([1]; Homo sapiens) [µM] | GI50 ([3]; Homo sapiens) [µM] | IC50 ([3]; Homo sapiens) [µM] | GI50 ([4]; Homo sapiens, A549) [µM] | IC50 ([4]; Homo sapiens, A549) [µM] | SMILES | GI50 ([2]; Mus musculus, NIH3T3) [µM] | IC50 ([2]; Mus musculus, NIH3T3) [µM] | Selectivity index NIH3T3 [2] | Effect on activity of Nrf2 (Nrf2) | GI50 [1] [µM] | IC50 [1] [µM] | GI50 [2] [µM] | IC50 [2] [µM] | GI50 [3] [µM] | IC50 [3] [µM] | GI50 [4] [µM] | IC50 [4] [µM] |
| --- | --- | --- | --- | --- | --- | --- | --- | --- | --- | --- | --- | --- | --- | --- | --- | --- | --- | --- |
| 4.99 | 4.99 | 5.6 | 5.6 | 11 | 11 | C[C@H]1[C@@H](O)O[C@@H]2O[C@]3(C)CC[C@H]4[C@H](C)CC[C@@H]1[C@@]24OO3 [DHA, dihydroartemisinin] | 3.86 | 3.86 | 2.5 | – | – | – | – | – | – | – | – | – |
| – | – | – | – | – | – | CC(=O)OC[C@H]1O[C@@H]([S-])[C@H](OC(C)=O)[C@@H](OC(C)=O)[C@@H]1OC(C)=O.CCP(CC)CC.[Au+] [Auranofin] | – | – | 1.0 | activate | 1.1 | 1.1 | 1.1 | 1.1 | 0.81 | 0.809 | 4.41 | 4.41 |
